This is an account of results in ChEMBL document CHEMBL1154880, “Hydroxylated sclerosporin derivatives from the marine-derived fungus Cadophora malorum” (J Nat Prod, 2010).

For data set [1], the system named is 3T3-L1. The data set can be described thus: Cytotoxicity against mouse 3T3L1 cells assessed as cell viability after 7 days. It counts as cell-based. The note with it: 3T3-L1, 168 h.
Data set [2] has as its system 3T3-L1. Kind of data set: Inhibition of adipogenesis in mouse 3T3L1 cells assessed as triglyceride accumulation at 25 ug/ml after 7 days relative to control. Further details: scale not given: the % may be the effect or the level left. It counts as functional.
For data set [3], the system named is 3T3-L1. Kind of data set: Inhibition of adipogenesis in mouse 3T3L1 cells assessed as triglyceride accumulation at 100 ug/ml after 7 days relative to control. The format is functional. Further details: scale not given: the % may be the effect or the level left.
The subject of data set [4] is 3T3-L1. The data set can be described thus: Inhibition of adipogenesis in mouse 3T3L1 cells assessed as triglyceride accumulation after 7 days. The format is functional, cell-based. As to conditions: 3T3-L1, 168 h.
Data set [5] in a line: Cytotoxicity against mouse 3T3L1 cells assessed as cell viability at 25 ug/ml after 7 days relative to control. It counts as cell-based. As to conditions: 3T3-L1 cells, read-out: Activity.
Data set [6] can be described thus: Cytotoxicity against mouse 3T3L1 cells assessed as cell viability at 50 ug/ml after 7 days relative to control. The format is cell-based. The note with it: 3T3-L1 cells, read-out: Activity.
Data set [7] in a line: Cytotoxicity against mouse 3T3L1 cells assessed as cell viability at 100 ug/ml after 7 days relative to control. It counts as cell-based. The note with it: 3T3-L1 cells, read-out: Activity.
Data set [8] has as its system 3T3-L1. Kind of data set: Inhibition of adipogenesis in mouse 3T3L1 cells assessed as triglyceride accumulation at 50 ug/ml after 7 days relative to control. The format is functional. Further details: scale not given: the % may be the effect or the level left.
Data set [9] relates to Plasmodium berghei. Kind of data set: Antiplasmodial activity against Plasmodium berghei sporozoites expressing GFP infected in hepatocytes at 25 uM by flow cytometry. The format is functional, organism-based. As to conditions: Hepatocyte.
Data set [10] deals with SARS-CoV. Kind of data set: Antiviral activity against SARS virus infected in african green monkey Vero76 cells assessed as inhibition of virus-induced cytopathogenic effect at 100 ug/ml after 3 days by neutral red uptake assay. The format is functional, organism-based. The note with it: Severe acute respiratory syndrome-related coronavirus, Vero 76. Background: Cytopathic effects are the visible damage that an infection or toxin causes in cultured cells.

Data set [11] has as its system SF-268. Kind of data set: Cytotoxicity against human SF268 cells at 100 uM after 48 hrs by sulforhodamine B assay. It counts as functional, cell-based. For orientation: In SRB staining, fixed cells bind dye roughly in proportion to their protein.
Data set [12] deals with Escherichia coli. The data set can be described thus: Antibacterial activity against Escherichia coli at 50 ug/disk. It counts as functional, organism-based.
Data set [13] concerns Human immunodeficiency virus 2. The data set can be described thus: Antiviral activity against HIV2 infected in human MT4 cells assessed as inhibition of virus-induced cytopathogenic effect at 50 ug/ml after 5 days by MTT assay. It counts as functional, organism-based.
Data set [14] has as its target Cyclin-dependent kinase 5 (Homo sapiens) (UniProt Q00535). Kind of data set: Inhibition of CDK5 at […].
Data set [15] relates to MCF7. The data set can be described thus: Cytotoxicity against human MCF7 cells at 100 uM after 48 hrs by sulforhodamine B assay. The format is functional, cell-based.
Data set [16] concerns Mycotypha microspora. Kind of data set: Antifungal activity against Mycotypha microspora at 50 ug/disk. The format is functional, organism-based.
In data set [17] the test system is Influenza A virus. The data set can be described thus: Antiviral activity against influenza A H5N1 subtype at 100 ug/ml. It counts as functional, organism-based.
Data set [18] deals with Human gammaherpesvirus 4. The data set can be described thus: Antiviral activity against Epstein-Barr virus at 100 ug/ml. It counts as functional, organism-based.
For data set [19], the target named is Dual specificity tyrosine-phosphorylation-regulated kinase 1A (Homo sapiens) (UniProt Q13627). The data set can be described thus: Inhibition of DYRK1A at […].
Data set [20] relates to Priestia megaterium. Kind of data set: Antibacterial activity against Bacillus megaterium at 50 ug/disk. It counts as functional, organism-based.
The test system of data set [21] is Human immunodeficiency virus 1. The data set can be described thus: Antiviral activity against HIV1 infected in human MT4 cells assessed as inhibition of virus-induced cytopathogenic effect at 50 ug/ml after 5 days by MTT assay. The format is functional, organism-based.
For data set [22], the system named is Microbotryum violaceum. Kind of data set: Antifungal activity against Microbotryum violaceum at 50 ug/disk. The format is functional, organism-based.
The test system of data set [23] is Aspergillus ruber. Kind of data set: Antifungal activity against Eurotium rubrum at 50 ug/disk. The format is functional, organism-based.
For data set [24], the target named is Neutrophil elastase (Homo sapiens) (UniProt P08246). The data set can be described thus: Inhibition of human neutrophil elastase at 100 uM.
In data set [25] the test system is NCI-H460. The data set can be described thus: Cytotoxicity against human NCI-H460 cells at 100 uM after 48 hrs by sulforhodamine B assay. It counts as functional, cell-based.
The test system of data set [26] is Influenza B virus. The data set can be described thus: Antiviral activity against influenza B at 100 ug/ml. It counts as functional, organism-based.
Data set [27] has as its system [Chlorella] fusca. Kind of data set: Antialgal activity against Chlorella fusca at 50 ug/disk. It counts as functional, organism-based. As to conditions: Scenedesmus fuscus.
Data set [28] concerns 3T3-L1. The data set can be described thus: Inhibition of adipogenesis in mouse 3T3L1 cells assessed as triglyceride accumulation at 4 ug/ml after 7 days relative to control. The format is functional. Further details: scale not given: the % may be the effect or the level left.
For data set [29], the system named is 3T3-L1. Kind of data set: Inhibition of adipogenesis in mouse 3T3L1 cells assessed as triglyceride accumulation at 20 ug/ml after 7 days relative to control. Further details: scale not given: the % may be the effect or the level left. The format is functional.
The nature of data set [30]: Cytotoxicity against mouse 3T3L1 cells assessed as cell viability at 20 ug/ml after 7 days relative to control. It counts as cell-based. The note with it: 3T3-L1 cells, read-out: Activity.
The nature of data set [31]: Cytotoxicity against mouse 3T3L1 cells assessed as cell viability at 4 ug/ml after 7 days relative to control. It counts as cell-based. As to conditions: 3T3-L1 cells, read-out: Activity.

Structures are written as SMILES. Values after ≈ are worked out from the molar mass of the structure shown. Active and inactive are the calls of the source. No cut-off for these calls is given here.

Chain of Neutrophil elastase (Homo sapiens) (P08246 whole entry): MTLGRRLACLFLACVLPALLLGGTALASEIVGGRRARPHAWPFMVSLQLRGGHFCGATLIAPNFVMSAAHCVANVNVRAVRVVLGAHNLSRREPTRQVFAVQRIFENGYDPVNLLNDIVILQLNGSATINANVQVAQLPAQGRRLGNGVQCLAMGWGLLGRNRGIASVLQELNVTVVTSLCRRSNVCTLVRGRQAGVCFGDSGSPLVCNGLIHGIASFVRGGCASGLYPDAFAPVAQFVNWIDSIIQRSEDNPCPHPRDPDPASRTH
Chain of Cyclin-dependent kinase 5 (Homo sapiens) (Q00535 whole entry, looked up): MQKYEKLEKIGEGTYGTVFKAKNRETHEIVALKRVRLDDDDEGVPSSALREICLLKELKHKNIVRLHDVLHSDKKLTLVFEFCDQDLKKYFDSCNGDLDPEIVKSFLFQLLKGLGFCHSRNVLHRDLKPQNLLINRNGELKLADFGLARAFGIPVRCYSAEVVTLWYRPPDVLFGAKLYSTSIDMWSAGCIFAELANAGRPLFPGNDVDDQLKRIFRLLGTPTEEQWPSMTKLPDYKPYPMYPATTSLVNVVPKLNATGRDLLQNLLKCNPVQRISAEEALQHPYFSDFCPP

As to `NC[C@H](O)c1ccc(O)c(O)c1` [NOREPINEPHRINE], the IC50 in [1] was above 100 µg/mL; in [4], 69 µg/mL (≈ 408 µM). Moreover, the values for the Activity in data set [2], in data set [3] and in data set [8] were 71%, 33% and 64%, respectively. In addition, the viability at 168 h, 25 ug/ml in data set [5] worked out at 123%. Further, in [6], the viability at 168 h, 50 ug/ml is 102%. Besides, the viability at 168 h, 100 ug/ml in data set [7] was 69%.
In the case of `CC(C)[C@H]1CC=C(C(=O)O)[C@@H]2CCC(CO)=C[C@H]12`, the inhibition entry in data set [9], in data set [11], in data set [13], in [14], in data set [15] and in [18] was “inactive” in each case. Further, the inhibition result in data set [19], in data set [21], in data set [24] and in data set [25] was “inactive” in each case. Further, the result in data set [10], in [12], in data set [16], in [17], in [20] and in [22] was inactive. In addition, the outcome in data set [23], in [26] and in [27] was inactive.
On to `CC1=C[C@H]2[C@@H](CC1)C(C(=O)O)=CC[C@@H]2C(C)(C)O`, for which the result in data set [12], in [16], in [20], in data set [22], in [23] and in [27] was inactive.
`CC1=C[C@@H]2[C@@H](C(C)C)[C@H](O)C=C(C(=O)O)[C@@H]2CC1`: the IC50 came out at 76 µg/mL (≈ 304 µM) in [1] and 53 µg/mL (≈ 212 µM) in data set [4]. The Activity in [3] was 26%; in data set [28], 117%; in data set [29] it was 133%. Also, the result in [12], in data set [16], in data set [20], in [22], in [23] and in [27] was inactive. The viability at 168 h, 20 ug/ml in data set [30] is 79%. Besides, the viability at 168 h, 4 ug/ml in [31] is 82%. Moreover, in data set [7], the viability at 168 h, 100 ug/ml is 46%.
As to `CC1=C[C@@H]2[C@@H](C(C)C)CC=C(C(=O)O)[C@@H]2CC1`, the result in data set [12], in data set [16], in [20], in data set [22], in data set [23] and in [27] was inactive.
On to `CC1=C[C@@H]2[C@@H](C(C)CO)CC=C(C(=O)O)[C@@H]2CC1` (some centres undefined), for which the outcome in [12], in data set [16], in [20], in data set [22], in [23] and in [27] was inactive.

As usually defined, the IC50 is the concentration that inhibits the measured activity by half.
